Converted amounts (≈) assume the structure as drawn. The source made the active and inactive calls. No cut-off for these calls is given here.
Experiments:
[1] = test system: Bacillus subtilis; experiment: Antibacterial activity against Bacillus subtilis 168 after 16 hrs; assay type: functional; conditions: subsp. subtilis str. 168, 16 h
[2] = biological target: T1, Cell division protein FtsZ (Bacillus subtilis (strain 168)) (UniProt P17865); experiment: Inhibition of Bacillus subtilis FtsZ GTPase activity up to 64 uM by enzyme-coupled assay
T1 sequence (whole entry): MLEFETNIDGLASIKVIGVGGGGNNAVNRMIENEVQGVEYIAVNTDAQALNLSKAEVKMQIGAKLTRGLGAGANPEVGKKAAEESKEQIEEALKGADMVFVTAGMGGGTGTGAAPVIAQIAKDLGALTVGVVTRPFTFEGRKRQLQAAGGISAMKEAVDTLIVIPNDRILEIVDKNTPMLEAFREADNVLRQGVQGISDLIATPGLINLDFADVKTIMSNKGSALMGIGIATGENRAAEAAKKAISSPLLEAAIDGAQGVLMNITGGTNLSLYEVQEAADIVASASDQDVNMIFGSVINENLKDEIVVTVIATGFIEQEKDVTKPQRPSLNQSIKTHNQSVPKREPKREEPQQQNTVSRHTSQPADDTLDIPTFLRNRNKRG

[3] = test system: Bacillus subtilis; experiment: Ratio of totarol MIC to compound MIC for Bacillus subtilis 168; assay type: functional, subsp. subtilis str. 168
[4] = biological target: T1, Cell division protein FtsZ (Bacillus subtilis (strain 168)); experiment: Inhibition of Bacillus subtilis FtsZ GTPase activity by enzyme-coupled assay in presence of 0.01% triton X-100
[5] = biological target: T2, Cell division protein FtsZ (Bacillus subtilis (strain 168), UniProt P17865); experiment: Inhibition of Bacillus subtilis FtsZ GTPase activity by enzyme-coupled assay
T2 sequence (P17865 whole entry): T1 sequence (whole entry)

| MIC [1] | Structure (SMILES) | other results |
| --- | --- | --- |
| 20 µM (≈ 5.75 µg/mL) | CC(C)c1c(O)ccc2c1NC[C@H]1C(C)(C)CCC[C@]21C |  |
| 2.5 µM (≈ 1 µg/mL) | CCc1ccc2[nH]c3c(c2c1)C[C@]1(C)c2ccc(O)c(C(C)C)c2CC[C@H]1C3(C)C (racemic) |  |
| > 100 µM | COc1ccc2c(c1C(C)C)CC[C@H]1C(C)(C)c3[nH]c4ccc(C#N)cc4c3C[C@]21C (racemic) |  |
| 1 µM (≈ 0.402 µg/mL) | CCc1cccc2c3c([nH]c12)C(C)(C)[C@@H]1CCc2c(ccc(O)c2C(C)C)[C@@]1(C)C3 (racemic) |  |
| 2.5 µM (≈ 0.934 µg/mL) | CC(C)c1c(O)ccc2c1CC[C@H]1C(C)(C)c3[nH]c4ccccc4c3C[C@]21C | inhibition [2]: inactive; Ratio [3]: 4 |
| 40 µM (≈ 13 µg/mL) | CC(C)c1c(O)ccc2c1CC[C@H]1C(C)(C)c3oncc3C[C@]21C |  |
| 80 µM (≈ 31.3 µg/mL) | CC(C)c1c(O)ccc2c1CC[C@H]1C(C)(C)c3[nH]c4ccc(F)cc4c3C[C@]21C (racemic) |  |
| > 256 µM | CC(=O)N1C[C@H]2C(C)(C)CCC[C@]2(C)c2ccc(O)c(C(C)C)c21 |  |
| 11 µM (≈ 4.42 µg/mL) | Cc1ccc2c3c([nH]c2c1C)C(C)(C)[C@@H]1CCc2c(ccc(O)c2C(C)C)[C@@]1(C)C3 (racemic) |  |
| 5.5 µM (≈ 2.49 µg/mL) | CC(C)c1c(O)ccc2c1CC[C@H]1C(C)(C)c3[nH]c4ccc(S(N)(=O)=O)cc4c3C[C@]21C (racemic) |  |
| > 160 µM | CC(C)c1c(O)ccc2c1CC[C@H]1C(C)(C)/C(=N/O)CC[C@]21C |  |
| 0.78 µM (≈ 0.311 µg/mL) | CC(C)c1c(O)ccc2c1CC[C@H]1C(C)(C)c3[nH]c4ccc(C#N)cc4c3C[C@]21C (racemic) | inhibition [2]: inactive |
| 0.78 µM (≈ 0.344 µg/mL) | CC(C)c1c(O)ccc2c1CC[C@H]1C(C)(C)c3[nH]c4ccc(C(F)(F)F)cc4c3C[C@]21C (racemic) |  |
| 2.5 µM (≈ 0.716 µg/mL) | CC(C)c1c(O)ccc2c1CC[C@H]1C(C)(C)CCC[C@]21C [TOTAROL] | inhibition [4]: inactive; IC50 [5]: 24 µM |
| > 160 µM | CC(C)c1c(O)ccc2c1CC[C@H]1C(C)(C)c3[nH]ncc3C[C@]21C |  |
| 6.3 µM (≈ 2.45 µg/mL) | CC(C)c1c(O)ccc2c1CC[C@H]1C(C)(C)c3[nH]c4c(O)cccc4c3C[C@]21C (racemic) |  |
| > 160 µM | CC(C)c1c(O)ccc2c1CC[C@H]1C(C)(C)C(N)CC[C@]21C (some centres not stated) |  |
| > 160 µM | CC(C)c1c(O)ccc2c1CC[C@H]1C(C)(C)c3c(cnn3-c3ccccc3)C[C@]21C |  |
| > 160 µM | COc1ccc2c(c1C(C)C)CC[C@H]1C(C)(C)C(=O)/C(=C\O)C[C@]21C |  |
| 0.78 µM (≈ 0.345 µg/mL) | CC(C)c1c(O)ccc2c1CC[C@H]1C(C)(C)c3[nH]c4c(Cl)cc(Cl)cc4c3C[C@]21C (racemic) |  |
| > 160 µM | CC(C)c1c(O)ccc2c1CC[C@H]1C(C)(C)NC(=O)CC[C@]21C |  |

| Structure (SMILES) | MIC [1] | other results |
| --- | --- | --- |
| CN[C@H](CC(C)C)C(=O)N[C@H]1C(=O)N[C@@H](CC(N)=O)C(=O)N[C@H]2C(=O)N[C@H]3C(=O)N[C@H](C(=O)N[C@H](C(=O)O)c4cc(O)cc(O)c4-c4cc3ccc4O)[C@H](O)c3ccc(c(Cl)c3)Oc3cc2cc(c3O[C@@H]2O[C@H](CO)[C@@H](O)[C@H](O)[C@H]2O[C@H]2C[C@](C)(N)[C@H](O)[C@H](C)O2)Oc2ccc(cc2Cl)[C@H]1O [VANCOMYCIN] | 0.63 µM (≈ 0.913 µg/mL) |  |

Source: ChEMBL document CHEMBL2150925, “The Synthesis and Antimicrobial Activity of Heterocyclic Derivatives of Totarol” (ACS Med Chem Lett, 2012)
